Source: patent US20240158446A1, “CYCLIC COMPOUND HAVING SELECTIVE INHIBITORY ACTION ON KRAS OVER HRAS AND NRAS” (CHUGAI SEIYAKU KABUSHIKI KAISHA, priority 2021, published 2024)

Tests used:
[1] = biological target: GDP-bound KRAS wild-type protein (Homo sapiens, UniProt P01116); assay: Binding to KRAS by surface plasmon resonance (SPR), Single Cycle Kinetics; settings: SPR, Single Cycle Kinetics, GDP-bound KRAS wild-type protein; read-out: KRAS KD
[2] = biological target: GDP-bound HRAS wild-type protein (Homo sapiens, UniProt P01112); assay: Binding to HRAS by surface plasmon resonance (SPR), Single Cycle Kinetics; settings: SPR, GDP-bound HRAS wild-type protein vs GDP-bound KRAS wild-type protein
Chain of GDP-bound HRAS wild-type protein (P01112 whole entry): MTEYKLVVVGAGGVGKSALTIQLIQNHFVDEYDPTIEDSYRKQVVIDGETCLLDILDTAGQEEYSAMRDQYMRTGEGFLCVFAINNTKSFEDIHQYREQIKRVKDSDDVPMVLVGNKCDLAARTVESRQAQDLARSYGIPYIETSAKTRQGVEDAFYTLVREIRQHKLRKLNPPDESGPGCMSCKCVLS

[3] = tested on: human lung cancer strain NCI-H441;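 note: cell proliferation inhibition after four days measured by CellTiter-Glo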
[4] = biological target: GDP-bound NRAS wild-type protein (Homo sapiens, UniProt P01111); assay: Binding to NRAS by surface plasmon resonance (SPR), Single Cycle Kinetics; settings: SPR, GDP-bound NRAS wild-type protein vs GDP-bound KRAS wild-type protein
Chain of GDP-bound NRAS wild-type protein (P01111 whole entry): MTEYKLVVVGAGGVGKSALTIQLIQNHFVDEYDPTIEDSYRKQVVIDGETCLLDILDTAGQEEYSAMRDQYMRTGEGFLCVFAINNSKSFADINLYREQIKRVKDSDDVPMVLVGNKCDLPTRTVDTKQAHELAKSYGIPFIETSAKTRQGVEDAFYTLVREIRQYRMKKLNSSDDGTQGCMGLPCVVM

Chain of GDP-bound KRAS wild-type protein (P01116 whole entry): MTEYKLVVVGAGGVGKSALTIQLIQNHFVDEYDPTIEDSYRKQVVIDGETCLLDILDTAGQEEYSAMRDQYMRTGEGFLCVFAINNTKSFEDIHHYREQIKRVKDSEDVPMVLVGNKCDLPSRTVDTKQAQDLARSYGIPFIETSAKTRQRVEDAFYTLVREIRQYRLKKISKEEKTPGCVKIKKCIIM

CC[C@H](C)[C@@H]1NC(=O)[C@H](CC)N(C)C(=O)C[C@@H](C(=O)N(C)C)N(C)C(=O)[C@H](C2CCCC2)N(C)C(=O)C2(CCC2)NC(=O)CN(CC)C(=O)[C@H](CCc2cc(F)c(C(F)(F)F)c(F)c2)NC(=O)CN(C)C(=O)[C@H](Cc2ccc(C(F)(F)F)cc2)N2CC/C=C\C[C@@H](C2=O)N(C)C(=O)CN(C)C1=O [PP1143]
Kd [1]: 0.17 nM | HRAS/KRAS (ratio of KD value for HRAS to KD value for KRAS) [2]: A (a compound having 10 or more and less than 20 is denoted as A) | IC50 [3]: 75.3 nM | NRAS/KRAS (ratio of KD value for NRAS to KD value for KRAS) [4]: A (a compound having 10 or more and less than 20 is denoted as A)

CC[C@H](C)[C@@H]1NC(=O)[C@H](CC)N(C)C(=O)C[C@@H](C(=O)N(C)C)N(C)C(=O)[C@H](C2CCCC2)N(C)C(=O)C2(CCC2)NC(=O)[C@H](COC)N(C)C(=O)[C@H](CCc2cc(F)c(C(F)(F)F)c(F)c2)NC(=O)CN(C)C(=O)[C@H](Cc2ccc(C(F)(F)F)cc2)N2CC/C=C\C[C@@H](C2=O)N(C)C(=O)CN(C)C1=O [PP1145]
Kd [1]: 0.21 nM | HRAS/KRAS (ratio of KD value for HRAS to KD value for KRAS) [2]: B (a compound having 3 or more and less than 10 is denoted as B) | IC50 [3]: 140 nM | NRAS/KRAS (ratio of KD value for NRAS to KD value for KRAS) [4]: A (a compound having 10 or more and less than 20 is denoted as A)

CC[C@H](C)[C@@H]1NC(=O)[C@H](CC)N(C)C(=O)C[C@@H](C(=O)N(C)C)N(C)C(=O)[C@H](C2CCCC2)N(C)C(=O)C2(CCC2)NC(=O)[C@H](C)N(C)C(=O)[C@H](CCc2cc(F)c(C(F)(F)F)c(F)c2)NC(=O)CN(C)C(=O)[C@H](Cc2ccc(C(F)(F)F)cc2)N2CC/C=C\C[C@@H](C2=O)N(C)C(=O)CN(C)C1=O [PP1146]
Kd [1]: 0.32 nM | HRAS/KRAS (ratio of KD value for HRAS to KD value for KRAS) [2]: B (a compound having 3 or more and less than 10 is denoted as B) | IC50 [3]: 202 nM | NRAS/KRAS (ratio of KD value for NRAS to KD value for KRAS) [4]: A (a compound having 10 or more and less than 20 is denoted as A)

CC[C@H](C)[C@@H]1NC(=O)[C@H](CC)N(C)C(=O)C[C@@H](C(=O)N(C)C)N(C)C(=O)[C@H](C2CCCC2)N(C)C(=O)C2(CCC2)NC(=O)[C@H](COCCC(C)C)N(C)C(=O)[C@H](CCc2cc(F)c(C(F)(F)F)c(F)c2)NC(=O)CN(C)C(=O)[C@H](Cc2ccc(C(F)(F)F)cc2)N2CC/C=C\C[C@@H](C2=O)N(C)C(=O)CN(C)C1=O [PP1148]
Kd [1]: 1.2 nM | HRAS/KRAS (ratio of KD value for HRAS to KD value for KRAS) [2]: A (a compound having 10 or more and less than 20 is denoted as A) | IC50 [3]: 357 nM | NRAS/KRAS (ratio of KD value for NRAS to KD value for KRAS) [4]: A (a compound having 10 or more and less than 20 is denoted as A)

CC[C@H](C)[C@@H]1NC(=O)[C@H](CC)N(C)C(=O)C[C@@H](C(=O)N(C)C)N(C)C(=O)[C@H](C2CCCC2)N(C)C(=O)C2(CCC2)NC(=O)[C@H](CC2CCCCC2)N(C)C(=O)[C@H](CCc2cc(F)c(C(F)(F)F)c(F)c2)NC(=O)CN(C)C(=O)[C@H](Cc2ccc(C(F)(F)F)cc2)N2CC/C=C\C[C@@H](C2=O)N(C)C(=O)CN(C)C1=O [PP1149]
Kd [1]: 0.43 nM | HRAS/KRAS (ratio of KD value for HRAS to KD value for KRAS) [2]: A (a compound having 10 or more and less than 20 is denoted as A) | IC50 [3]: 173 nM | NRAS/KRAS (ratio of KD value for NRAS to KD value for KRAS) [4]: A (a compound having 10 or more and less than 20 is denoted as A)

CCCC[C@H]1C(=O)NC2(CCC2)C(=O)N(C)[C@@H](C2CCCC2)C(=O)N(C)[C@H](C(=O)N(C)C)CC(=O)N(C)[C@@H](CC)C(=O)N[C@@H]([C@@H](C)CC)C(=O)N(C)CC(=O)N(C)[C@H]2C/C=C\CCN(C2=O)[C@@H](Cc2ccc(C(F)(F)F)cc2)C(=O)N(C)CC(=O)N[C@@H](CCc2cc(F)c(C(F)(F)F)c(F)c2)C(=O)N1C [PP1150]
Kd [1]: 0.17 nM | HRAS/KRAS (ratio of KD value for HRAS to KD value for KRAS) [2]: A (a compound having 10 or more and less than 20 is denoted as A) | IC50 [3]: 42.7 nM | NRAS/KRAS (ratio of KD value for NRAS to KD value for KRAS) [4]: AA (a compound having 20 or more is denoted as AA)

CCO[C@@H]1C[C@H]2C(=O)NC3(CCC3)C(=O)N(C)[C@@H](C3CCCC3)C(=O)N(C)[C@H](C(=O)N(C)C)CC(=O)N(C)[C@@H](Cc3ccccc3C#N)C(=O)N[C@@H]([C@@H](C)CC)C(=O)N(C)CC(=O)N(C)[C@H]3CCCCCN(C3=O)[C@@H](Cc3ccc(F)cc3)C(=O)N(C)CC(=O)N[C@@H](CCc3cc(F)c(C(F)(F)F)c(F)c3)C(=O)N2C1 [PP1155]
Kd [1]: 0.15 nM | HRAS/KRAS (ratio of KD value for HRAS to KD value for KRAS) [2]: B (a compound having 3 or more and less than 10 is denoted as B) | IC50 [3]: 73.1 nM | NRAS/KRAS (ratio of KD value for NRAS to KD value for KRAS) [4]: B (a compound having 3 or more and less than 10 is denoted as B)

CCO[C@@H]1C[C@H]2C(=O)NC3(CCC3)C(=O)N(C)[C@@H](C3CCCC3)C(=O)N(C)[C@H](C(=O)N(C)C)CC(=O)N(C)[C@@H](Cc3cccc(C#N)c3)C(=O)N[C@@H]([C@@H](C)CC)C(=O)N(C)CC(=O)N(C)[C@H]3CCCCCN(C3=O)[C@@H](Cc3ccc(F)cc3)C(=O)N(C)CC(=O)N[C@@H](CCc3cc(F)c(C(F)(F)F)c(F)c3)C(=O)N2C1 [PP1156]
Kd [1]: 0.063 nM | HRAS/KRAS (ratio of KD value for HRAS to KD value for KRAS) [2]: B (a compound having 3 or more and less than 10 is denoted as B) | IC50 [3]: 33.7 nM | NRAS/KRAS (ratio of KD value for NRAS to KD value for KRAS) [4]: B (a compound having 3 or more and less than 10 is denoted as B)

CCO[C@@H]1C[C@H]2C(=O)NC3(CCC3)C(=O)N(C)[C@@H](C3CCCC3)C(=O)N(C)[C@H](C(=O)N(C)C)CC(=O)N(C)[C@@H](Cc3ccc(C#N)cc3)C(=O)N[C@@H]([C@@H](C)CC)C(=O)N(C)CC(=O)N(C)[C@H]3CCCCCN(C3=O)[C@@H](Cc3ccc(F)cc3)C(=O)N(C)CC(=O)N[C@@H](CCc3cc(F)c(C(F)(F)F)c(F)c3)C(=O)N2C1 [PP1157]
Kd [1]: 0.061 nM | HRAS/KRAS (ratio of KD value for HRAS to KD value for KRAS) [2]: B (a compound having 3 or more and less than 10 is denoted as B) | IC50 [3]: 30.3 nM | NRAS/KRAS (ratio of KD value for NRAS to KD value for KRAS) [4]: B (a compound having 3 or more and less than 10 is denoted as B)

CCO[C@@H]1C[C@H]2C(=O)NC3(CCC3)C(=O)N(C)[C@@H](C3CCCC3)C(=O)N(C)[C@H](C(=O)N(C)C)CC(=O)N(C)[C@@H](Cc3ccc(Cl)c(Cl)c3)C(=O)N[C@@H]([C@@H](C)CC)C(=O)N(C)CC(=O)N(C)[C@H]3CCCCCN(C3=O)[C@@H](Cc3ccc(F)cc3)C(=O)N(C)CC(=O)N[C@@H](CCc3cc(F)c(C(F)(F)F)c(F)c3)C(=O)N2C1 [PP1158]
Kd [1]: 0.18 nM | HRAS/KRAS (ratio of KD value for HRAS to KD value for KRAS) [2]: B (a compound having 3 or more and less than 10 is denoted as B) | IC50 [3]: 57.5 nM | NRAS/KRAS (ratio of KD value for NRAS to KD value for KRAS) [4]: B (a compound having 3 or more and less than 10 is denoted as B)

CCCO[C@@H]1C[C@H]2C(=O)NC3(CCC3)C(=O)N(C)[C@@H](C3CCCC3)C(=O)N(C)[C@H](C(=O)N3CCOCC3)CC(=O)N(C)[C@@H](CC(C)C)C(=O)N[C@@H]([C@@H](C)CC)C(=O)N(C)CC(=O)N(C)[C@H]3CCCCN(C3=O)[C@@H](Cc3ccc(C(F)(F)F)cc3)C(=O)N(C)CC(=O)N[C@@H](CCc3cc(F)c(C(F)(F)F)c(F)c3)C(=O)N2C1 [PP1159]
Kd [1]: 0.036 nM | HRAS/KRAS (ratio of KD value for HRAS to KD value for KRAS) [2]: B (a compound having 3 or more and less than 10 is denoted as B) | IC50 [3]: 13 nM | NRAS/KRAS (ratio of KD value for NRAS to KD value for KRAS) [4]: C (A compound having a KD ratio of 0.1 or more and less than 3 is denoted as C)

CC[C@H](C)[C@@H]1NC(=O)[C@H](CC(C)C)N(C)C(=O)C[C@@H](C(=O)N2CCOCC2)N(C)C(=O)[C@H](C2CCCC2)N(C)C(=O)C2(CCC2)NC(=O)[C@@H]2C[C@@H](OCC(C)C)CN2C(=O)[C@H](CCc2cc(F)c(C(F)(F)F)c(F)c2)NC(=O)CN(C)C(=O)[C@H](Cc2ccc(C(F)(F)F)cc2)N2CCCC[C@@H](C2=O)N(C)C(=O)CN(C)C1=O [PP1160]
Kd [1]: 0.032 nM | HRAS/KRAS (ratio of KD value for HRAS to KD value for KRAS) [2]: B (a compound having 3 or more and less than 10 is denoted as B) | IC50 [3]: 18.4 nM | NRAS/KRAS (ratio of KD value for NRAS to KD value for KRAS) [4]: B (a compound having 3 or more and less than 10 is denoted as B)

CCO[C@@H]1C[C@H]2C(=O)NC3(CCC3)C(=O)N(C)[C@@H](C3CCCC3)C(=O)N(C)[C@H](C(=O)N3CCOCC3)CC(=O)N(C)[C@@H](Cc3cccs3)C(=O)N[C@@H]([C@@H](C)CC)C(=O)N(C)CC(=O)N(C)[C@H]3CCCCCN(C3=O)[C@@H](Cc3ccc(C(F)(F)F)cc3)C(=O)N(C)CC(=O)N[C@@H](CCc3cc(F)c(C(F)(F)F)c(F)c3)C(=O)N2C1 [PP1163]
Kd [1]: 0.59 nM | HRAS/KRAS (ratio of KD value for HRAS to KD value for KRAS) [2]: B (a compound having 3 or more and less than 10 is denoted as B) | IC50 [3]: 93.3 nM | NRAS/KRAS (ratio of KD value for NRAS to KD value for KRAS) [4]: B (a compound having 3 or more and less than 10 is denoted as B)

CCO[C@@H]1C[C@H]2C(=O)NC3(CCC3)C(=O)N(C)[C@@H](C3CCCC3)C(=O)N(C)[C@H](C(=O)N3CCOCC3)CC(=O)N(C)[C@@H](Cc3ccsc3)C(=O)N[C@@H]([C@@H](C)CC)C(=O)N(C)CC(=O)N(C)[C@H]3CCCCCN(C3=O)[C@@H](Cc3ccc(C(F)(F)F)cc3)C(=O)N(C)CC(=O)N[C@@H](CCc3cc(F)c(C(F)(F)F)c(F)c3)C(=O)N2C1 [PP1164]
Kd [1]: 0.52 nM | HRAS/KRAS (ratio of KD value for HRAS to KD value for KRAS) [2]: B (a compound having 3 or more and less than 10 is denoted as B) | IC50 [3]: 95.9 nM | NRAS/KRAS (ratio of KD value for NRAS to KD value for KRAS) [4]: B (a compound having 3 or more and less than 10 is denoted as B)

CCO[C@@H]1C[C@H]2C(=O)NC3(CCC3)C(=O)N(C)[C@@H](C3CCCC3)C(=O)N(C)[C@H](C(=O)N3CCOCC3)CC(=O)N(C)[C@@H](Cc3ccccc3C#N)C(=O)N[C@@H]([C@@H](C)CC)C(=O)N(C)CC(=O)N(C)[C@H]3CCCCCN(C3=O)[C@@H](Cc3ccc(C(F)(F)F)cc3)C(=O)N(C)CC(=O)N[C@@H](CCc3cc(F)c(C(F)(F)F)c(F)c3)C(=O)N2C1 [PP1165]
Kd [1]: 1.5 nM | HRAS/KRAS (ratio of KD value for HRAS to KD value for KRAS) [2]: B (a compound having 3 or more and less than 10 is denoted as B) | IC50 [3]: 295 nM | NRAS/KRAS (ratio of KD value for NRAS to KD value for KRAS) [4]: A (a compound having 10 or more and less than 20 is denoted as A)
